# Results: PubChem BioAssay (NCI)
# Values joined by “and” are separate entries in the source; they are usually repeats but may differ in a detail not shown here. Identical values can stand only once.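 In this assay, cells in 96-well plates receive the compound at five concentrations for 48 hours. Endpoints are linearly interpolated between the surrounding concentrations. At the GI50, growth is halved. TGI marks complete inhibition of growth.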
# What was measured:
# Assay in all cases: DTP human tumour cell line panel, 48 h
# UACC-62 melanoma = system: UACC-62 melanoma
# SR leukemia = system: SR leukemia
# HCT-116 colon = system: HCT-116 colon
# KM12 colon = system: KM12 colon
# HOP-62 NSCLC = system: HOP-62 NSCLC
# NCI-H23 lung = system: NCI-H23 lung
# PC-3 prostate = system: PC-3 prostate
# OVCAR-5 ovarian = system: OVCAR-5 ovarian
# HS 578T breast = system: HS 578T breast
# DU-145 prostate = system: DU-145 prostate
Structure (SMILES),GI50 (UACC-62 melanoma),TGI (UACC-62 melanoma),GI50 (SR leukemia),TGI (SR leukemia),GI50 (HCT-116 colon),TGI (HCT-116 colon),GI50 (KM12 colon),TGI (KM12 colon),GI50 (HOP-62 NSCLC),TGI (HOP-62 NSCLC),GI50 (NCI-H23 lung),TGI (NCI-H23 lung),GI50 (PC-3 prostate),TGI (PC-3 prostate),GI50 (OVCAR-5 ovarian),TGI (OVCAR-5 ovarian),GI50 (HS 578T breast),TGI (HS 578T breast),GI50 (DU-145 prostate),TGI (DU-145 prostate)
Cc1cc2ncnn2cc1Nc1ncc2c(n1)n(C1CCOCC1)c(=O)n2C,3.5 µM,29.3 µM,3.42 µM,52.9 µM,10.7 µM,> 100 µM,14.5 µM,> 100 µM,3.95 µM,78.2 µM,14.3 µM,> 100 µM,2.73 µM,> 100 µM,5.81 µM,> 100 µM,2.84 µM,23.4 µM,6.92 µM,> 100 µM
CCNCCNc1cc(-c2ccc(C(F)(F)F)cc2)c(C#N)c2nc3ccccc3n12,0.496 µM,1.82 µM,0.343 µM,1.19 µM,0.388 µM,1.32 µM,1.51 µM,3.07 µM,1.56 µM,3.18 µM,1.62 µM,3.25 µM,1.54 µM,2.95 µM,1.94 µM,3.52 µM,1.96 µM,4.39 µM,1.44 µM,2.78 µM
CC1=CC(=O)C=CC1=O,28.2 µM and 13.7 µM,27.2 µM,1.63 µM and 9.34 µM,–,14.8 µM and 2.97 µM,29.8 µM,14.1 µM and 16.5 µM,27.7 µM and 32.1 µM,35.9 µM and 25.3 µM,75.3 µM,26.6 µM and 20.5 µM,60 µM,15.7 µM,39.4 µM,21.4 µM,39.5 µM,14.4 µM and 24.9 µM,47.1 µM and 246 µM,17.3 µM and 17.8 µM,31 µM and 32.4 µM
Cc1cc(C)c(NC(=O)c2sc3nc4c(cc3c2N)C(=O)CCC4)c(C)c1,1.31 µM,> 100 µM,3 µM,> 55.3 µM,3.85 µM,> 100 µM,2.8 µM,> 100 µM,4.56 µM,> 100 µM,3.9 µM,> 100 µM,1.96 µM,> 100 µM,7.98 µM,> 100 µM,4.51 µM,> 100 µM,3.36 µM,> 100 µM
CCc1nc(N)nc(N)c1-c1ccc(NC)c([N+](=O)[O-])c1,–,> 100 µM,–,> 29.4 µM,–,> 100 µM,–,> 100 µM,–,37.7 µM,–,> 100 µM,–,> 100 µM,–,> 100 µM,–,> 100 µM,–,> 100 µM
O=c1cc(NCC(O)CN2CCCC2)n(Cc2ccccc2)c(=O)n1Cc1ccccc1 (centres undefined),20.9 µM,47.3 µM,0.847 µM,31 µM,13.6 µM,33.3 µM,18.5 µM,36.5 µM,18.7 µM,54.4 µM,92 µM,> 100 µM,26.9 µM,84.1 µM,> 100 µM,> 100 µM,37 µM,> 100 µM,87 µM,> 100 µM
CC(C)c1c(O)c(O)c2c(c1O)C(=O)C(O)=C1C(C)(C)CCC[C@@]12C,–,16.1 µM,–,6.59 µM,–,11.2 µM,–,12.2 µM,–,> 100 µM,–,13.8 µM,–,11.8 µM,–,19.5 µM,–,43.5 µM,–,18.1 µM
CCCCC(CC)COC(=O)C[N+](C)(C)CCOC(c1ccccc1)c1ccccc1 (centres undefined),1.67 µM,3.16 µM,2.18 µM,5.16 µM,1.8 µM,3.32 µM,1.78 µM,3.44 µM,9.89 µM,28.6 µM,3.77 µM,15.9 µM,3.21 µM,11.7 µM,4.11 µM,15.8 µM,2.08 µM,6.68 µM,5.53 µM,18 µM
COc1ccc(-c2[nH]c3ccc(OC)cc3c2/C=C(\C#N)S(=O)(=O)c2ccccc2)cc1,0.644 µM,> 61.1 µM,0.305 µM,2.6 µM,0.53 µM,> 100 µM,0.653 µM,7.69 µM,2.97 µM,48.1 µM,0.965 µM,> 33.3 µM,0.533 µM,23.6 µM,3.85 µM,> 100 µM,0.531 µM,7.25 µM,0.785 µM,> 31.4 µM
CCc1nc2cc(F)c(/C=C/C(=O)NO)cc2c(=O)n1CCc1ccccc1,0.235 µM,0.699 µM,0.354 µM,53.3 µM,0.313 µM,11 µM,0.412 µM,15 µM,0.291 µM,1.74 µM,0.375 µM,7.07 µM,0.526 µM,59.4 µM,0.402 µM,17.6 µM,0.489 µM,26.9 µM,0.358 µM,10.5 µM
CCCC(CCC)NCC(O)c1cc(-c2ccc(C(F)(F)F)cc2)nc(C(F)(F)F)c1 (centres undefined),1.72 µM,3.25 µM,1.4 µM,3.27 µM,1.66 µM,3.24 µM,1.93 µM,3.42 µM,1.66 µM,3.12 µM,1.58 µM,3.15 µM,1.75 µM,3.33 µM,1.55 µM,2.95 µM,1.69 µM,4.14 µM,1.94 µM,3.39 µM
